For one compound, solubility results are on record in patent US20120231972A1, “Probe Compound for Detecting and Isolating Enzymes and Means and Methods Using the Same” (priority 2009, published 2012).

Values after ≈ are worked out from the molar mass of the structure shown.

This series in a line: physchem. The series is classed as physicochemical. To be noted: water.

Broadly, the solubility is how much of the substance goes into solution per volume. The low end stands for a poorly soluble substance, the high end for a readily soluble substance. `CC[N+]1=C(/C=C/C=C2/N(CCCCCC(=O)N[C@H](Cc3c[nH]cn3)C(=O)O)c3ccc(S(=O)(=O)[O-])cc3C2(C)C)C(C)(C)c2cc(S(=O)(=O)NCCCC(=O)OCCN(C)C)ccc21` [compound (E), Cy3-His-4-amino-3-butyric acid (N,N-dimethylamino) ethylester]: the solubility was roughly 240 mM (≈ 222 mg/mL).
